target: Intestinal-type alkaline phosphatase (Mus musculus, UniProt P24822); assay: PubChem AID 488874
Sequence (P24822 whole entry, looked up): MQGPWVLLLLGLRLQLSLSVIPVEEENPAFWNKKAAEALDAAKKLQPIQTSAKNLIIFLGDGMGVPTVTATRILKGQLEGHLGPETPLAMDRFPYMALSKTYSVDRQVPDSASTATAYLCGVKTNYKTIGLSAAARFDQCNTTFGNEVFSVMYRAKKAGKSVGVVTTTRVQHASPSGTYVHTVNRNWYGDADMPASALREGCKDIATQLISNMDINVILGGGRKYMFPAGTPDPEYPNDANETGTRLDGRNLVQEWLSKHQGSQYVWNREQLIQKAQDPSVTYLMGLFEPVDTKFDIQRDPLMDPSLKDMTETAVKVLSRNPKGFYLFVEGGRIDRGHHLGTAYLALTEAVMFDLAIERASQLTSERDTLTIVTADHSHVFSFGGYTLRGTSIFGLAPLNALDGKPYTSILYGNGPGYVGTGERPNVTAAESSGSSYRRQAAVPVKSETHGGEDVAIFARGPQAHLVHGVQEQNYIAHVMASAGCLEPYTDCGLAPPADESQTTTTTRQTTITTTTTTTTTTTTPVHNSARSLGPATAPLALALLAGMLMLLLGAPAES

SMILES	IC50
Cc1c(C(=O)NN=Cc2ccc(O)cc2O)[nH][nH]c1=O	> 100 µM
CC(N=Nc1ccccc1[N+](=O)[O-])c1ccc([N+](=O)[O-])cc1 (stereo not given)	> 100 µM
Cc1cc(Br)ccc1SCC(=O)OCC(=O)C(C#N)c1nc2ccccc2[nH]1 (stereo not given) [2-[(4-bromo-2-methylphenyl)thio]acetic acid [3-cyano-3-(1,3-dihydrobenzimidazol-2-ylidene)-2-oxopropyl] ester]	> 100 µM
CCOC1=CC(=Cc2c(C)[nH]oc2=O)C=C(Br)C1=O [4-[(Z)-(3-bromo-5-ethoxy-4-oxo-1-cyclohexa-2,5-dienylidene)methyl]-3-methyl-2H-isoxazol-5-one]	33.1 µM
C=c1[nH]n(Cc2ccccc2)c(=O)c1=Cc1ccc(N(C)C)cc1 [(4Z)-4-[[4-(dimethylamino)phenyl]methylidene]-5-methyl-2-(phenylmethyl)-3-pyrazolone]	35.1 µM
CCOC(=O)c1c(C)[nH]c(C(=O)N/N=C/C2C=C([N+](=O)[O-])C=CC2=O)c1C (stereo not given) [ethyl 2,4-dimethyl-5-[[[(E)-(3-nitro-6-oxocyclohexa-2,4-dien-1-ylidene)methyl]amino]carbamoyl]-1H-pyrrole-3-carboxylate]	> 100 µM
O=C(O)[C@H]1O[C@@H](Oc2c(-c3ccc(O)c(O)c3)oc3cc(O)cc(=O)c-3c2O)[C@H](O)[C@@H](O)[C@@H]1O [quercetin glucuronide]	3.29 µM

Next, values leading:

IC50	SMILES
75.3 µM	O=c1c2ccccc2nc(N=NCc2c(O)ccc3ccccc23)n1O [SMR000145705]
3.84 µM	O=C(Nn1c(O)csc1=S)C(=O)Nn1c(O)csc1=S [SMR000349781]
35.5 µM	O=Nc1[nH]c(=O)c(CC(=O)c2ccccc2)nc1NO [SMR000539633]
